# Where two headings read alike, the source gives them in different places.
# Assays:
# [1] = test system: protein product expressed by the gene target; conditions: cited from earlier work
# physchem = conditions: pH 7.4, aqueous buffer, kinetic from dmso stock
# [2] = Kinetic solubility in aqueous buffer pH 7.4 by total chemiluminescent nitrogen determination (Analiza); conditions: aqueous buffer, pH 7.4, aqueous buffer, kinetic from dmso stock
# [3] = test system: BV2 (mouse microglia) cell line; assay: pHrodo-myelin phagocytosis/cell viability high content imaging assay: phagocytosis signal; type: cell-based
# Outline: (§1)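 HCI read-out ~22 h post pHrodo-myelin; phagocytosis + viability simultaneously; 3 parameters extracted; intensity up = early apoptosis, down = later apoptosis.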
# cellular system = conditions: cited from earlier work
# [4] = test system: HMC3 (human microglia) cell line; assay: pHrodo-myelin phagocytosis/cell viability high content imaging assay: phagocytosis signal; type: cell-based
# Outline: as §1
# [5] = test system: HMC3 (human microglia) cell line; assay: pHrodo-myelin phagocytosis/cell viability high content imaging assay: viability (cell count, nuclear area, nuclear intensity); conditions: for 1. Cell count (% control) / 2. Nuclear Area (% Control) / 3. Nuclear DNA Intensity (% control): 48 hours treatment
# Outline: (§2)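 10 μM single dose, 48 h total; pHrodo-myelin present final 20 h. Read-out: automated imaging, total cell count/well, mean nuclear intensity/cell. n=2, normalized to untreated wells, % control.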
# [6] = test system: BV2 (mouse microglia) cell line; assay: as above; conditions: for 1. Cell count (% control) / 2. Nuclear Area (% Control) / 3. Nuclear DNA Intensity (% control): 48 hours treatment
# Outline: as §2
# [7] = gene target CYP19A1, ref Probe Miner
smiles,measurement,setting,value
CC(C)CCOc1ccc(N)cc1 [CP-24879],Reported on-target biochemical potency,"[1]; gene target FADS1 and FADS2, ref PubMed 11939906, 27832159, 9605428",3.4 µM
same,solubility kinetic,physchem,56.8 µM
CC(=O)N1CCN(c2ccc(OCC3COC(Cn4ccnc4)(c4ccc(Cl)cc4Cl)O3)cc2)CC1 (stereo not drawn) [Ketoconazole],solubility kinetic,[2],120 µM
same,Stimulation of mouse microglial phagocytosis at 10 μM (>150% control),"[3]; BV2, 10 μM",Y (The compound was found to stimulate phagocytosis (response threshold: >150% control) when murine immortalized microglial cells were dosed at 10 μM (Y: yes))
same,Reported on-target biochemical potency,[1],64 µM
same,Reported as cell active (<10 μM),cellular system,Y (key: Published data supports that the compound is active in a cellular system when dosed at 10 μM (Y/N); Published data supports that the compound is active in a cellular system when dosed at 10 μM (Y/N))
CNC(=O)[C@H](Cc1c[nH]c2ccccc12)NC(=O)[C@@H](CC(=O)NO)CC(C)C [Ilomastat],Reported on-target biochemical potency,"[1]; target gene MMP17, ref Probe Miner, PubMed 33513143",0.0034 µM
same,solubility kinetic,physchem,104 µM
COc1ccc2[nH]c([S+]([O-])Cc3ncc(C)c(OC)c3C)nc2n1 (stereo not drawn) [Tenatoprazole],Reported on-target biochemical potency,"[1]; gene target DHTKD1, ref PubMed 32633484",2.7 µM
same,solubility kinetic,physchem,131 µM
"CCCCNc1ncc2c(-c3ccc(CN4CCN(C)CC4)cc3)cn([C@H]3CC[C@H](O)CC3)c2n1 [UNC2025C, reference compound]",solubility kinetic,[2],43.4 µM
same,Inhibition of human microglial phagocytosis at 10 μM (<70% control),"[4]; 10 μM, HMC3",Y (The compound was found to inhibit phagocytosis (response threshold: <70% control) when human immortalized microglial cells were dosed at 10 μM (Y: yes))
same,"phagocytosis in human microglial cells (< 70% control inhibition, > 150% control stimulation)","[4]; HMC3, 10 μM, pHrodo-myelin",inhibited
same,4. Phagocytosis (% control),"[4]; HMC3 cells, 10 uM compound, 48 hours treatment, pHrodo-myelin final 20 hours",1.1 % control
same,Inhibition of mouse microglial phagocytosis at 10 μM (<70% control),"[3]; 10 μM, BV2",Y (The compound was found to inhibit phagocytosis (response threshold: <70% control) when murine immortalized microglial cells were dosed at 10 μM (Y: yes))
same,"phagocytosis in mouse microglial cells (< 70% control inhibition, > 150% control stimulation)","[3]; BV2, 10 μM, pHrodo-myelin",inhibited
same,4. Phagocytosis (% control),"[3]; BV2 cells, 10 uM compound, 48 hours treatment, pHrodo-myelin final 20 hours",0.168 % control
same,Reported on-target biochemical potency,"[1]; target MERTK, ref PubMed 25068800, 27649555",0.00074 µM
same,Human microglial cytotoxicity at 10 μM (<70% control),"[5]; 10 μM, HMC3",Y (The compound was found to be cytotoxic (cell count threshold: <70% control) when human immortalized microglial cells were dosed at 10 μM (Y: yes))
same,1. Cell count (% control),"[5]; HMC3 cells, 10 uM compound",38.6 % control
same,2. Nuclear Area (% Control),"[5]; HMC3 cells, 10 uM compound",85.2 % Control
same,3. Nuclear DNA Intensity (% control),"[5]; HMC3 cells, 10 uM compound",178.5 % control
same,Mouse microglial cytotoxicity at 10 μM (<70% control),"[6]; 10 μM, BV2",Y (The compound was found to be cytotoxic (cell count threshold: <70% control) when murine immortalized microglial cells were dosed at 10 μM (Y: yes))
same,1. Cell count (% control),"[6]; BV2 cells, 10 uM compound",17.3 % control
same,2. Nuclear Area (% Control),"[6]; BV2 cells, 10 uM compound",101.1 % Control
same,3. Nuclear DNA Intensity (% control),"[6]; BV2 cells, 10 uM compound",19.1 % control
Cc1ccc(F)c(NC(=O)Nc2ccc(-c3cccc4[nH]nc(N)c34)cc2)c1 [Linifanib],solubility kinetic,[2],0.6 µM
same,Inhibition of human microglial phagocytosis at 10 μM (<70% control),"[4]; HMC3, 10 μM",Y (The compound was found to inhibit phagocytosis (response threshold: <70% control) when human immortalized microglial cells were dosed at 10 μM (Y: yes))
same,Stimulation of mouse microglial phagocytosis at 10 μM (>150% control),"[3]; BV2, 10 μM",Y (The compound was found to stimulate phagocytosis (response threshold: >150% control) when murine immortalized microglial cells were dosed at 10 μM (Y: yes))
same,Reported on-target biochemical potency,[1]; [7],0.005 µM
same,Human microglial cytotoxicity at 10 μM (<70% control),"[5]; HMC3, 10 μM",Y (The compound was found to be cytotoxic (cell count threshold: <70% control) when human immortalized microglial cells were dosed at 10 μM (Y: yes))
same,Mouse microglial cytotoxicity at 10 μM (<70% control),"[6]; BV2, 10 μM",Y (The compound was found to be cytotoxic (cell count threshold: <70% control) when murine immortalized microglial cells were dosed at 10 μM (Y: yes))
Nc1nc(Nc2ccc3c(c2)CC[C@@H](N2CCCC2)CC3)nn1-c1cc2c(nn1)-c1ccccc1CCC2 [Bemcentinib (BGB324)],solubility kinetic,[2],82.9 µM
same,Inhibition of human microglial phagocytosis at 10 μM (<70% control),"[4]; HMC3, 10 μM",Y (The compound was found to inhibit phagocytosis (response threshold: <70% control) when human immortalized microglial cells were dosed at 10 μM (Y: yes))
same,Inhibition of mouse microglial phagocytosis at 10 μM (<70% control),"[3]; BV2, 10 μM",Y (The compound was found to inhibit phagocytosis (response threshold: <70% control) when murine immortalized microglial cells were dosed at 10 μM (Y: yes))
same,Reported on-target biochemical potency,[1],0.014 µM
same,Human microglial cytotoxicity at 10 μM (<70% control),"[5]; HMC3, 10 μM",Y (The compound was found to be cytotoxic (cell count threshold: <70% control) when human immortalized microglial cells were dosed at 10 μM (Y: yes))
same,Mouse microglial cytotoxicity at 10 μM (<70% control),"[6]; BV2, 10 μM",Y (The compound was found to be cytotoxic (cell count threshold: <70% control) when murine immortalized microglial cells were dosed at 10 μM (Y: yes))
Cl.NCCOCCOCCNC(=O)Cc1ccc(Nc2nc(NCc3ccc(F)cc3)nc(NCC3CCCCC3)n2)cc1 [ENOblock (AP-III-a4)],Inhibition of human microglial phagocytosis at 10 μM (<70% control),"[4]; HMC3, 10 μM",Y (The compound was found to inhibit phagocytosis (response threshold: <70% control) when human immortalized microglial cells were dosed at 10 μM (Y: yes))
same,Stimulation of mouse microglial phagocytosis at 10 μM (>150% control),"[3]; BV2, 10 μM",Y (The compound was found to stimulate phagocytosis (response threshold: >150% control) when murine immortalized microglial cells were dosed at 10 μM (Y: yes))
same,Reported on-target biochemical potency,"[1]; gene target ENO1, ref Probe Miner, PubMed 30679508, 28272459",0.576 µM
same,solubility kinetic,physchem,76.8 µM
same,Mouse microglial cytotoxicity at 10 μM (<70% control),"[6]; BV2, 10 μM",Y (The compound was found to be cytotoxic (cell count threshold: <70% control) when murine immortalized microglial cells were dosed at 10 μM (Y: yes))
COCC(=O)O[C@]1(CCN(C)CCCc2nc3ccccc3[nH]2)CCc2cc(F)ccc2[C@@H]1C(C)C [Mibefradil],solubility kinetic,[2],128 µM
same,Inhibition of human microglial phagocytosis at 10 μM (<70% control),"[4]; HMC3 cells, 10 μM",Y (The compound was found to inhibit phagocytosis (response threshold: <70% control) when human immortalized microglial cells were dosed at 10 μM (Y: yes))
same,Inhibition of mouse microglial phagocytosis at 10 μM (<70% control),"[3]; BV2 cells, 10 μM",Y (The compound was found to inhibit phagocytosis (response threshold: <70% control) when murine immortalized microglial cells were dosed at 10 μM (Y: yes))
same,Reported on-target biochemical potency,[1],0.98 µM
same,Reported as cell active (<10 μM),cellular system,Y (key: Published data supports that the compound is active in a cellular system when dosed at 10 μM (Y/N); Published data supports that the compound is active in a cellular system when dosed at 10 μM (Y/N))
same,Mouse microglial cytotoxicity at 10 μM (<70% control),"[6]; BV2 cells, 10 μM, cell count <70% control",Y (The compound was found to be cytotoxic (cell count threshold: <70% control) when murine immortalized microglial cells were dosed at 10 μM (Y: yes))
CCN(C)C(=O)Oc1cccc([C@H](C)N(C)C)c1 [Rivastigmine],Stimulation of mouse microglial phagocytosis at 10 μM (>150% control),"[3]; BV2, 10 μM",Y (The compound was found to stimulate phagocytosis (response threshold: >150% control) when murine immortalized microglial cells were dosed at 10 μM (Y: yes))
same,Reported on-target biochemical potency (nM): BChE,"[1]; gene target BCHE, ref PubMed 23469045, 12166941",37 nM
same,solubility kinetic,physchem,160 µM
Clc1ccccc1C(c1ccccc1)(c1ccccc1)n1ccnc1 [Clotrimazole],Reported on-target biochemical potency,[1]; [7],0.0018 µM
same,solubility kinetic,physchem,4.2 µM
same,Mouse microglial cytotoxicity at 10 μM (<70% control),"[6]; BV2, 10 μM",Y (The compound was found to be cytotoxic (cell count threshold: <70% control) when murine immortalized microglial cells were dosed at 10 μM (Y: yes))
"O=C(Cn1cc(S(=O)(=O)N2CCCC2)ccc1=O)c1ccc(-c2cccc(C(F)(F)F)c2)cc1 [UNC8367A, reference compound]",solubility kinetic,[2],6.5 µM
same,"phagocytosis in human microglial cells (< 70% control inhibition, > 150% control stimulation)","[4]; HMC3, 10 μM, pHrodo-myelin",stimulatory
same,4. Phagocytosis (% control),"[4]; HMC3, compound 10 uM, pHrodo-myelin",146.9 % control
same,Stimulation of mouse microglial phagocytosis at 10 μM (>150% control),"[3]; BV2, 10 μM",Y (The compound was found to stimulate phagocytosis (response threshold: >150% control) when murine immortalized microglial cells were dosed at 10 μM (Y: yes))
same,4. Phagocytosis (% control),"[3]; BV2, compound 10 uM, pHrodo-myelin",408.0 % control
same,Reported on-target biochemical potency,"[1]; gene target DOCK1, ref PubMed 28467910, 29432733",8.4 µM
same,1. Cell count (% control),"[5]; HMC3, compound 10 uM",109.8 % control
same,2. Nuclear Area (% Control),"[5]; HMC3, compound 10 uM",95.2 % Control
same,3. Nuclear DNA Intensity (% control),"[5]; HMC3, compound 10 uM",108.6 % control
same,Mouse microglial cytotoxicity at 10 μM (<70% control),"[6]; BV2, 10 μM",Y (The compound was found to be cytotoxic (cell count threshold: <70% control) when murine immortalized microglial cells were dosed at 10 μM (Y: yes))
same,1. Cell count (% control),"[6]; BV2, compound 10 uM",56.7 % control
same,2. Nuclear Area (% Control),"[6]; BV2, compound 10 uM",109.8 % Control
same,3. Nuclear DNA Intensity (% control),"[6]; BV2, compound 10 uM",118.7 % control
CN1CCN(CCCN2c3ccccc3Sc3ccc(C(F)(F)F)cc32)CC1 [Trifluoperazine],Inhibition of human microglial phagocytosis at 10 μM (<70% control),"[4]; 10 μM, HMC3",Y (The compound was found to inhibit phagocytosis (response threshold: <70% control) when human immortalized microglial cells were dosed at 10 μM (Y: yes))
same,Reported on-target biochemical potency,[1],5.2 µM
same,Reported as cell active (<10 μM),cellular system,Y (key: Published data supports that the compound is active in a cellular system when dosed at 10 μM (Y/N); Published data supports that the compound is active in a cellular system when dosed at 10 μM (Y/N))
same,Mouse microglial cytotoxicity at 10 μM (<70% control),"[6]; 10 μM, BV2",Y (The compound was found to be cytotoxic (cell count threshold: <70% control) when murine immortalized microglial cells were dosed at 10 μM (Y: yes))

# From publication PMC9019904, “AD Informer Set: Chemical tools to facilitate Alzheimer's disease drug discovery” (Alzheimer's & Dementia : Translational Research & Clinical …, 2022)
